Measured values reported in US8748624B2, “Picolinamido-propanoic acid derivatives useful as glucagon receptor antagonists” (Janssen Pharmaceutica NV, priority 2011, dated 2014).

Assays:
[1] = molecular target: human glucagon receptor (GCGR) (Homo sapiens (Human), UniProt P47871); assay: Inhibition of 125I-glucagon binding to membranes from HEK293 cells expressing the human glucagon receptor; settings: membranes of hGluc-1 HEK cells, 125I-glucagon 0.3 nM, 2 hours room temperature; IC50 converted to Ki; average if tested more than once
Sequence of human glucagon receptor (GCGR) (P47871 26-477): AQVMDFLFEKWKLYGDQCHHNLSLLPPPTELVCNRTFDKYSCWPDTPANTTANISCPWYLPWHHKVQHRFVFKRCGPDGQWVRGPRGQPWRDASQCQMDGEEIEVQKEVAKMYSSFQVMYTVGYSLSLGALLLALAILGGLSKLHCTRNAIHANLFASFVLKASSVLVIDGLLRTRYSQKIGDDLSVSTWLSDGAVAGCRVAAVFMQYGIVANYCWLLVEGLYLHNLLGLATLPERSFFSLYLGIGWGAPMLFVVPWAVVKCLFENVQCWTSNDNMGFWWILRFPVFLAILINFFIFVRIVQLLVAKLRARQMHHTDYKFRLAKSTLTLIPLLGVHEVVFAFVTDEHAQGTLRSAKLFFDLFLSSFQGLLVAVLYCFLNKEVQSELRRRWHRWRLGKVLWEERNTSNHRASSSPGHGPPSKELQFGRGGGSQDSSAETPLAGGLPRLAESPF
Summary of the method: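 Filtration binding assay on membranes from HEK293 cells stably expressing full-length human GCGR, 6 μg protein/well, with 0.3 nM ¹²⁵I-glucagon plus compound, 2 h at room temperature. Buffer: 50 mM HEPES pH 7.4, 5 mM MgCl2, 1 mM CaCl2, 0.2% BSA. IC50 by non-linear regression, converted to Ki.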

[2] = molecular target: human GCGR (Homo sapiens (Human), UniProt P47871); assay: Cellular functional assay, cAMP readout (glucagon-stimulated cAMP in HEK293 cells expressing human GCGR); type: cell-based; settings: hGluc-1 HEK cells, LANCE TR-FRET, IC50 converted to Ki, average if tested more than once
Sequence of human GCGR (P47871 26-477): as above
Summary of the method: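 HEK293 cells stably transfected with full-length human GCGR were exposed to compound for 30 min before a 5-min challenge with […] (final) glucagon. Readout was TR-FRET (LANCE) cAMP versus standard curve; IC50s fitted by non-linear regression and converted to Ki values.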

Structure (SMILES) | Ki [1] [nM] | Ki [2] [nM]
O=C(O)CCNC(=O)c1ccc(-c2cc(C(F)(F)F)cc(Cl)c2CNc2ccc(-c3ccc(Cl)cc3)cc2)cn1 [Compound 67, 3-(5-(3-chloro-2-(((4′-chloro-[1,1′-biphenyl]-4-yl)amino)methyl)-5-(trifluoromethyl)phenyl)picolinamido)propanoic acid] | 18.8 | 12.2
Cc1ccc(CNc2ccc(-c3ccc(Cl)cc3)cc2)c(-c2ccc(C(=O)NCCC(=O)O)nc2)c1 [Compound 68, 3-(5-(2-(((4′-chloro-[1,1′-biphenyl]-4-yl)amino)methyl)-5-methylphenyl)picolinamido)propanoic acid] | 40 | 151
Cc1cccc(CNc2ccc(-c3ccc(Cl)cc3)cc2)c1-c1ccc(C(=O)NCCC(=O)O)nc1 [Compound 69, 3-(5-(2-(((4′-chloro-[1,1′-biphenyl]-4-yl)amino)methyl)-6-methylphenyl)picolinamido)propanoic acid] | 85.2 | 500
CS(=O)(=O)c1ccc(CNc2ccc(-c3ccc(Cl)cc3)cc2)c(-c2ccc(C(=O)NCCC(=O)O)nc2)c1 [Compound 70, 3-(5-(2-(((4′-chloro-[1,1′-biphenyl]-4-yl)amino)methyl)-5-(methylsulfonyl)phenyl)picolinamido)propanoic acid] | 52.2 | > 10400
Cc1cc(Cl)ccc1-c1ccc(NCc2c(Cl)cc(C(F)(F)F)cc2-c2ccc(C(=O)NCCC(=O)O)nc2)cc1 [Compound 73, 3-(5-(3-chloro-2-(((4′-chloro-2′-methyl-[1,1′-biphenyl]-4-yl)amino)methyl)-5-(trifluoromethyl)phenyl)picolinamido)propanoic acid] | 19.5 | 3.7
O=C(O)CCNC(=O)c1ccc(-c2cc(C(F)(F)F)cc(Cl)c2CNc2ccc(-c3ccc(Cl)cc3)c(Cl)c2)cn1 [Compound 74, 3-(5-(3-chloro-2-(((2,4′-dichloro-[1,1′-biphenyl]-4-yl)amino)methyl)-5-(trifluoromethyl)phenyl)picolinamido)propanoic acid] | 14.9 | 7.1
Cc1cc(Cl)ccc1-c1ccc(NCc2cc(Cl)c(C(F)(F)F)cc2-c2ccc(C(=O)NCCC(=O)O)nc2)cc1 [Compound 77, 3-(5-(4-chloro-2-(((4′-chloro-2′-methyl-[1,1′-biphenyl]-4-yl)amino)methyl)-5-(trifluoromethyl)phenyl)picolinamido)propanoic acid] | 24.2 | 22.4
Cc1cc(NCc2cc(Cl)c(C(F)(F)F)cc2-c2ccc(C(=O)NCCC(=O)O)nc2)ccc1-c1ccc(Cl)cc1 [Compound 79, 3-(5-(4-chloro-2-(((4′-chloro-2-methyl-[1,1′-biphenyl]-4-yl)amino)methyl)-5-(trifluoromethyl)phenyl)picolinamido)propanoic acid] | 24 | 31.6
O=C(O)CCNC(=O)c1ccc(-c2cc(Cl)ccc2CNc2ccc(-c3ccc(F)cc3F)c(F)c2)cn1 [Compound 89, 3-(5-(5-chloro-2-(((2,2′,4′-trifluoro-[1,1′-biphenyl]-4-yl)amino)methyl)phenyl)picolinamido)propanoic acid] | 60.6 | 550
O=C(O)CCNC(=O)c1ccc(-c2cc(Cl)ccc2CNc2ccc(-c3ccc(C(F)(F)F)cc3)c(F)c2)cn1 [Compound 90, 3-(5-(5-chloro-2-(((2-fluoro-4′-(trifluoromethyl)-[1,1′-biphenyl]-4-yl)amino)methyl)phenyl)picolinamido)propanoic acid] | 33.6 | 281
O=C(O)CCNC(=O)c1ccc(-c2cc(Cl)ccc2CNc2ccc(-c3ccc(Cl)cc3)c(F)c2)cn1 [Compound 91, 3-(5-(5-chloro-2-(((4′-chloro-2-fluoro-[1,1′-biphenyl]-4-yl)amino)methyl)phenyl)picolinamido)propanoic acid] | 33.4 | 295
O=C(O)CCNC(=O)c1ccc(-c2cc(Cl)ccc2CNc2ccc(-c3ccc(Cl)c(F)c3)c(F)c2)cn1 [Compound 93, 3-(5-(5-chloro-2-(((4′-chloro-2,3′-difluoro-[1,1′-biphenyl]-4-yl)amino)methyl)phenyl)picolinamido)propanoic acid] | 53.4 | 295
O=C(O)CCNC(=O)c1ccc(-c2cc(F)c(F)cc2C(=O)Nc2ccc(-c3ccc(F)cc3)cc2)cn1 [Compound 95, 3-(5-(4,5-difluoro-2-((4′-fluoro-[1,1′-biphenyl]-4-yl)carbamoyl)phenyl)picolinamido)propanoic acid] | 139 | 600
O=C(O)CCNC(=O)c1ccc(-c2cc(F)c(F)cc2C(=O)Nc2ccc(-c3ccc(C(F)(F)F)cc3)cc2)cn1 [Compound 96, 3-(5-(4,5-difluoro-2-((4′-(trifluoromethyl)-[1,1′-biphenyl]-4-yl)carbamoyl)phenyl)picolinamido)propanoic acid] | 33.8 | 176
O=C(O)CCNC(=O)c1ccc(-c2cc(F)c(F)cc2C(=O)Nc2ccc(-c3ccc(Cl)cc3)cc2)cn1 [Compound 97, 3-(5-(2-((4′-chloro-[1,1′-biphenyl]-4-yl)carbamoyl)-4,5-difluorophenyl)picolinamido)propanoic acid] | 57.4 | 225
Cc1ccc(-c2ccc(NCc3cc(F)c(F)cc3-c3ccc(C(=O)NCCC(=O)O)nc3)cc2Cl)c(F)c1 [Compound 105, 3-(5-(2-(((2-chloro-2′-fluoro-4′-methyl-[1,1′-biphenyl]-4-yl)amino)methyl)-4,5-difluorophenyl)picolinamido)propanoic acid] | 33 | 255

Continued by falling Ki [1], values first:

Ki [1] [nM] | Ki [2] [nM] | Structure (SMILES)
44.3 | 370 | O=C(O)CCNC(=O)c1ccc(-c2cc(Cl)ccc2CNc2ccc(-c3ccc(F)cc3)c(F)c2)cn1 [Compound 88, 3-(5-(5-chloro-2-(((2,4′-difluoro-[1,1′-biphenyl]-4-yl)amino)methyl)phenyl)picolinamido)propanoic acid]
33.8 | 34.6 | O=C(O)CCNC(=O)c1ccc(-c2cc(C(F)(F)F)c(Cl)cc2CNc2ccc(-c3ccc(Cl)cc3Cl)cc2)cn1 [Compound 82, 3-(5-(4-chloro-2-(((2′,4′-dichloro-[1,1′-biphenyl]-4-yl)amino)methyl)-5-(trifluoromethyl)phenyl)picolinamido)propanoic acid]
33.5 | 78.5 | O=C(O)CCNC(=O)c1ccc(-c2cc(F)c(F)cc2C(=O)Nc2ccc(-c3ccc(Cl)cc3Cl)cc2)cn1 [Compound 94, 3-(5-(2-((2′,4′-dichloro-[1,1′-biphenyl]-4-yl)carbamoyl)-4,5-difluorophenyl)picolinamido)propanoic acid]
31.3 | 17.3 | O=C(O)CCNC(=O)c1ccc(-c2cc(C(F)(F)F)cc(C(F)(F)F)c2CNc2ccc(-c3ccc(Cl)cc3)cc2)cn1 [Compound 71, 3-(5-(2-(((4′-chloro-[1,1′-biphenyl]-4-yl)amino)methyl)-3,5-bis(trifluoromethyl)phenyl)picolinamido)propanoic acid]
28.6 | 47.4 | O=C(O)CCNC(=O)c1ccc(-c2cc(C(F)(F)F)c(Cl)cc2CNc2ccc(-c3ccc(Cl)cc3)cc2)cn1 [Compound 80, 3-(5-(4-chloro-2-(((4′-chloro-[1,1′-biphenyl]-4-yl)amino)methyl)-5-(trifluoromethyl)phenyl)picolinamido)propanoic acid]
27.8 | 6.7 | Cc1cc(NCc2c(Cl)cc(C(F)(F)F)cc2-c2ccc(C(=O)NCCC(=O)O)nc2)ccc1-c1ccc(Cl)cc1 [Compound 75, 3-(5-(3-chloro-2-(((4′-chloro-2-methyl-[1,1′-biphenyl]-4-yl)amino)methyl)-5-(trifluoromethyl)phenyl)picolinamido)propanoic acid]
25.4 | 84.4 | O=C(O)CCNC(=O)c1ccc(-c2cc(F)c(F)cc2CNc2ccc(-c3ccc(Cl)cc3F)c(Cl)c2)cn1 [Compound 104, 3-(5-(2-(((2,4′-dichloro-2′-fluoro-[1,1′-biphenyl]-4-yl)amino)methyl)-4,5-difluorophenyl)picolinamido)propanoic acid]
24 | 25 | O=C(O)CCNC(=O)c1ccc(-c2cc(C(F)(F)F)c(Cl)cc2CNc2ccc(-c3ccc(Cl)cc3)c(Cl)c2)cn1 [Compound 78, 3-(5-(4-chloro-2-(((2,4′-dichloro-[1,1′-biphenyl]-4-yl)amino)methyl)-5-(trifluoromethyl)phenyl)picolinamido)propanoic acid]
22.9 | 68.9 | O=C(O)CCNC(=O)c1ccc(-c2cc(F)c(F)cc2CNc2ccc(-c3ccc(Cl)cc3)c(Cl)c2)cn1 [Compound 103, 3-(5-(2-(((2,4′-dichloro-[1,1′-biphenyl]-4-yl)amino)methyl)-4,5-difluorophenyl)picolinamido)propanoic acid]
21.3 | 41.8 | O=C(O)CCNC(=O)c1ccc(-c2cc(F)c(F)cc2CNc2ccc(-c3ccc(F)c(C(F)(F)F)c3)c(Cl)c2)cn1 [Compound 102, 3-(5-(2-(((2-chloro-4′-fluoro-3′-(trifluoromethyl)-[1,1′-biphenyl]-4-yl)amino)methyl)-4,5-difluorophenyl)picolinamido)propanoic acid]
19.4 | 114 | O=C(O)CCNC(=O)c1ccc(-c2cc(Cl)ccc2CNc2ccc(-c3ccc(Cl)cc3Cl)c(F)c2)cn1 [Compound 92, 3-(5-(5-chloro-2-(((2′,4′-dichloro-2-fluoro-[1,1′-biphenyl]-4-yl)amino)methyl)phenyl)picolinamido)propanoic acid]
